Patent publication US12552775B2, “Compounds and uses thereof” (Foghorn Therapeutics Inc., priority 2020, dated 2026)

Columns and labels:
HiBit-BRM fusion protein = molecular target: T1, HiBit-BRM fusion protein (Homo sapiens, UniProt P51531); test: HiBiT-BRM cell-based degradation assay (Nano-Glo HiBiT Lytic Detection, 24 h); conditions: stable HeLa cell line expressing HiBiT-BRM, top dose 30 μM
T1 construct: expressed in transfected cells
Method: (§1) Procedure: A stable HeLa cell line expressing HiBiT-BRM was generated. On day 0, 5000 cells were seeded in 40 μL of media into each well of 384-well cell culture plates. On day 1, cells were treated with 120 nL DMSO or 120 nL of 3-fold serially DMSO-diluted compounds (10 points in duplicate with 30 μM as final top dose). Subsequently plates were incubated for 24 h in a standard tissue culture incubator and equilibrated at room temperature for 15 minutes. Nano-Glo HiBiT Lytic Detection System (Promega N3050) reagent was freshly prepared and 20 ul was added to each well. Upon addition of this LgBit-containing reagent, the HiBiT and LgBiT proteins associate to form the luminescent NanoBiT luciferase. The plates were shaken for 10 minutes at room temperature and the bioluminescence read using an EnVision plate reader (PerkinElmer).
(§2) The degradation % was calculated using the following formula: % degradation=100%−100%×(Lumsample−LumLC)/(LumHC−LumLC). DMSO treated cells are employed as High Control (HC) and 2 μM of a known BRM/BRG1 degrader standard treated cells are employed as Low Control (LC).

[1] = molecular target: T2, HiBit-BRG1 fusion protein (Homo sapiens, UniProt P51532); test: HiBiT-BRG1 cell-based degradation assay (Nano-Glo HiBiT Lytic Detection, 24 h); conditions: stable HeLa cell line expressing HiBit-BRG1 and LgBit, top dose 30 μM, read-out: BRG1 HiBit Degradation Maximum (%)
T2 construct: expressed in transfected cells
T2 sequence (P51532 whole entry, the tested form may be a part): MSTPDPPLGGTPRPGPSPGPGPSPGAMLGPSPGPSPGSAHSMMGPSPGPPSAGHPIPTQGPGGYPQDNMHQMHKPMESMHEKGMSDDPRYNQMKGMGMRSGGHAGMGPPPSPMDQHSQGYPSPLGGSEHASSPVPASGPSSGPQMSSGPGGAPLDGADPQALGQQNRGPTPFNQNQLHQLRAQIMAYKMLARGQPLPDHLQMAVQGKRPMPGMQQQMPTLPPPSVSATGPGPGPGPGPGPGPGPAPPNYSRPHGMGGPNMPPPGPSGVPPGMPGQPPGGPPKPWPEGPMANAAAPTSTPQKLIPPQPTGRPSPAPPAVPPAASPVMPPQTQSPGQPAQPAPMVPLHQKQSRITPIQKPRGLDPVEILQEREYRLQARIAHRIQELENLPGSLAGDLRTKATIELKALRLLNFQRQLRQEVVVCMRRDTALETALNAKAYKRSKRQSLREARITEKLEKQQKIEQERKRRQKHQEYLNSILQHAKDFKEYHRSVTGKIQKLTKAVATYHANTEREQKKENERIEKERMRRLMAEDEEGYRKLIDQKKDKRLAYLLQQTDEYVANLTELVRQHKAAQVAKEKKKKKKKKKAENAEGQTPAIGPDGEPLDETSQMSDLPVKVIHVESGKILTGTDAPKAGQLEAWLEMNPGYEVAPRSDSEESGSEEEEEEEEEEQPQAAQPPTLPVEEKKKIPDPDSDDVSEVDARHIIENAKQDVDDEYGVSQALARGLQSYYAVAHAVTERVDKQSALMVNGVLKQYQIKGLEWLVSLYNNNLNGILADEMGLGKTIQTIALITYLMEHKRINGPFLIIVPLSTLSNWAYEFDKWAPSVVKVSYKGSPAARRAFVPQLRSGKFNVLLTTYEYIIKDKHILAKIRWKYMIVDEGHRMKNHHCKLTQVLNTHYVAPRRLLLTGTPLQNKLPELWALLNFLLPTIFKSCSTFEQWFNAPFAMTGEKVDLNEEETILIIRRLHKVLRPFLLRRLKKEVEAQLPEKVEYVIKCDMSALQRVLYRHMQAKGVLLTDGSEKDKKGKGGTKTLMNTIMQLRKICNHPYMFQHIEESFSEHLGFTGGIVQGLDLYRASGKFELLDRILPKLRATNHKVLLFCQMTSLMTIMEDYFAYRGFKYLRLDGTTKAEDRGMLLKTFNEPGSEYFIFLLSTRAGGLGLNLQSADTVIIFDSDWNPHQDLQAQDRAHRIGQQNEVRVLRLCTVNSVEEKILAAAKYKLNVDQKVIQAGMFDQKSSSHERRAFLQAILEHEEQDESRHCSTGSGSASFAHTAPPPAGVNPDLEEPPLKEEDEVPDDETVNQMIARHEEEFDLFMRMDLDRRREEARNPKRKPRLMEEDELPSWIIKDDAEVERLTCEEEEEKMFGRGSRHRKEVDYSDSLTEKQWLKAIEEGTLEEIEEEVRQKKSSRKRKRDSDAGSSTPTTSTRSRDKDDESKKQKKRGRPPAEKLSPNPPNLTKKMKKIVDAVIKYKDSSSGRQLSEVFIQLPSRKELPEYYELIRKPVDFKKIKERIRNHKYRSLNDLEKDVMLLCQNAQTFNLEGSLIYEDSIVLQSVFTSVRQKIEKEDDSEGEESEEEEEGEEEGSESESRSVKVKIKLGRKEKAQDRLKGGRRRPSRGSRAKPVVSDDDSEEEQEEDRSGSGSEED
Method: as §1
For measurement of BRG1 degradation, a stable HeLa cell line expressing HiBit-BRG1 and LgBit was generated. The same protocol as above was then followed.
as §2

T1 sequence (P51531 whole entry, the tested form may be a part): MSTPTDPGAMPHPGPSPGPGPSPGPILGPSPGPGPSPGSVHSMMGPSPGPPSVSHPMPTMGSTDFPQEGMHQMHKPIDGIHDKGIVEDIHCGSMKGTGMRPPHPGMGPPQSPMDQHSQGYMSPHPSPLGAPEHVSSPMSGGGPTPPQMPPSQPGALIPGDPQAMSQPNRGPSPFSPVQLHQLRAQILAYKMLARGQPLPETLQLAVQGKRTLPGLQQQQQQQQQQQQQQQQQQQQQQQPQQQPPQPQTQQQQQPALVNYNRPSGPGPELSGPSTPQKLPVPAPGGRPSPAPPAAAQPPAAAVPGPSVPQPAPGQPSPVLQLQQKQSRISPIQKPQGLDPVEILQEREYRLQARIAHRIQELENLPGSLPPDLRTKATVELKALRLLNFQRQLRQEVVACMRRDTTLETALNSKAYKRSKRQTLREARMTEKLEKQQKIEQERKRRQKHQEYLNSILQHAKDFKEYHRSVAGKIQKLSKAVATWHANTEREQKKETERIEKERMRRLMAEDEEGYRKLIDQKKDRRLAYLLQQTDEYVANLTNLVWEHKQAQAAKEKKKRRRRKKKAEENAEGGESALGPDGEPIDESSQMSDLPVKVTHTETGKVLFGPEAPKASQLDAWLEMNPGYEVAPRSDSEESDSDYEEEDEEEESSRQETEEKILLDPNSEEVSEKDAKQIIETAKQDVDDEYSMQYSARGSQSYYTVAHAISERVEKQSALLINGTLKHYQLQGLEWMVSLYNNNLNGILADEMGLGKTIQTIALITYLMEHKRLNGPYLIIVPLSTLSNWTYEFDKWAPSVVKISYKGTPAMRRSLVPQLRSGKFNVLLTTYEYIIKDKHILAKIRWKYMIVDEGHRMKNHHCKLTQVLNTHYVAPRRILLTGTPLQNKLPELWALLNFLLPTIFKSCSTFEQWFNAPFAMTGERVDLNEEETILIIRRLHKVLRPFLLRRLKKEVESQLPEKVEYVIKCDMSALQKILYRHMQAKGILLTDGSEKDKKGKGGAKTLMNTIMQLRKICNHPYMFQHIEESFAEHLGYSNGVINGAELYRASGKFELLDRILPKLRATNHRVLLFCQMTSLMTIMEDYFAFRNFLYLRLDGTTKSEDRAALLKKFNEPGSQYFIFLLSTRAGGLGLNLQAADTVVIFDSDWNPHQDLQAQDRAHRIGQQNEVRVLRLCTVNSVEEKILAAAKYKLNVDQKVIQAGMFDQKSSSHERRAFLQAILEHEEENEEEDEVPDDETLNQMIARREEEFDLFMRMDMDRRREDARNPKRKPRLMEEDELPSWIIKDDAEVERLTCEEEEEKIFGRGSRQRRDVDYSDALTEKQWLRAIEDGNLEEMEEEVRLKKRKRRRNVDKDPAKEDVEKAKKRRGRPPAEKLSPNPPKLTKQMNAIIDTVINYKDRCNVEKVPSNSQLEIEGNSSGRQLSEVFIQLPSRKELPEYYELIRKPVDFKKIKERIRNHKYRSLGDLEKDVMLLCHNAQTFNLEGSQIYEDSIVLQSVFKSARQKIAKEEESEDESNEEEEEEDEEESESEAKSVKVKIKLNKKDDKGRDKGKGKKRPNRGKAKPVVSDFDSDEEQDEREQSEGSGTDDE

SMILES | Dmax [1] [%] | BRM HiBit Degradation Maximum (%) (HiBit-BRM fusion protein)
Nc1nnc(-c2ccccc2O)cc1OCC12CC(C(=O)NCCCC#Cc3ccc4c(c3)C(=O)N(C3CCC(=O)NC3=O)C4=O)(C1)C2 (centres unmarked) [Compound 89, 3-(((3-amino-6-(2-hydroxyphenyl)pyridazin-4-yl)oxy)methyl)-N-(5-(2-(2,6-dioxopiperidin-3-yl)-1,3-dioxoisoindolin-5-yl)pent-4-yn-1-yl)bicyclo[1.1.1]pentane-1-carboxamide] | < 50 | C (“C” indicates maximum degradation < 50%)
Nc1nnc(-c2ccccc2O)cc1OCCC12CC(NC(=O)C3CC3CNC(=O)COc3ccc4c(c3)C(=O)N(C3CCC(=O)NC3=O)C4=O)(C1)C2 (centres unmarked) [Compound 29, N-(3-(2-((3-amino-6-(2-hydroxyphenyl)pyridazin-4-yl)oxy)ethyl)bicyclo[1.1.1]pentan-1-yl)-2-((2-((2-(2,6-dioxopiperidin-3-yl)-1,3-dioxoisoindolin-5-yl)oxy)acetamido)methyl)cyclopropane-1-carboxamide] | < 50 | C (“C” indicates maximum degradation < 50%)
Cc1ncsc1-c1ccc(CNC(=O)[C@@H]2C[C@@H](O)CN2C(=O)[C@@H](NC(=O)CCCCC(=O)NC23CC(CCOc4cc(-c5ccccc5O)nnc4N)(C2)C3)C(C)(C)C)cc1 [Compound 43, N1-(3-(2-((3-amino-6-(2-hydroxyphenyl)pyridazin-4-yl)oxy)ethyl)bicyclo[1.1.1]pentan-1-yl)-N6-((S)-1-((2S,4R)-4-hydroxy-2-((4-(4-methylthiazol-5-yl)benzyl)carbamoyl)pyrrolidin-1-yl)-3,3-dimethyl-1-oxobutan-2-yl)adipamide] | > 75 | A (“A” indicates maximum degradation ≥ 75%)
CN(CCNC(=O)C12CC(COc3cc(-c4ccccc4O)nnc3N)(C1)C2)CCOCCOc1cccc2c1C(=O)N(C1CCC(=O)NC1=O)C2=O (centres unmarked) [Compound 79, 3-(((3-amino-6-(2-hydroxyphenyl)pyridazin-4-yl)oxy)methyl)-N-(2-((2-(2-((2-(2,6-dioxopiperidin-3-yl)-1,3-dioxoisoindolin-4-yl)oxy)ethoxy)ethyl)(methyl)amino)ethyl)bicyclo[1.1.1]pentane-1-carboxamide] | < 50 | C (“C” indicates maximum degradation < 50%)
Nc1nnc(-c2ccccc2O)cc1OCC12CC(C(=O)NCCOc3cccc(OCCNc4cccc5c4C(=O)N(C4CCC(=O)NC4=O)C5=O)c3)(C1)C2 (centres unmarked) [Compound 83, 3-(((3-amino-6-(2-hydroxyphenyl)pyridazin-4-yl)oxy)methyl)-N-(2-(3-(2-((2-(2,6-dioxopiperidin-3-yl)-1,3-dioxoisoindolin-4-yl)amino)ethoxy)phenoxy)ethyl)bicyclo[1.1.1]pentane-1-carboxamide] | < 50 | C (“C” indicates maximum degradation < 50%)
Nc1nnc(-c2ccccc2O)cc1OCC12CC(C(=O)NCCOCCOCCNc3cccc4c3CN(C3CCC(=O)NC3=O)C4=O)(C1)C2 (centres unmarked) [Compound 60, 3-(((3-amino-6-(2-hydroxyphenyl)pyridazin-4-yl)oxy)methyl)-N-(2-(2-(2-((2-(2,6-dioxopiperidin-3-yl)-1-oxoisoindolin-4-yl)amino)ethoxy)ethoxy)ethyl)bicyclo[1.1.1]pentane-1-carboxamide] | < 50 | C (“C” indicates maximum degradation < 50%)
Nc1nnc(-c2ccccc2O)cc1OCC12CC(CNC(=O)C3CCN(CCOc4ccc5c(c4)C(=O)N(C4CCC(=O)NC4=O)C5=O)CC3)(C1)C2 (centres unmarked) [Compound 15, N-((3-(((3-amino-6-(2-hydroxyphenyl)pyridazin-4-yl)oxy)methyl)bicyclo[1.1.1]pentan-1-yl)methyl)-1-(2-((2-(2,6-dioxopiperidin-3-yl)-1,3-dioxoisoindolin-5-yl)oxy)ethyl)piperidine-4-carboxamide] | < 50 | C (“C” indicates maximum degradation < 50%)
Nc1nnc(-c2ccccc2O)cc1OCC12CC(C(=O)N3CCN(CCCOCC#Cc4ccc5c(c4)C(=O)N(C4CCC(=O)NC4=O)C5=O)CC3)(C1)C2 (centres unmarked) [Compound 52, 5-(3-(3-(4-(3-(((3-amino-6-(2-hydroxyphenyl)pyridazin-4-yl)oxy)methyl)bicyclo[1.1.1]pentane-1-carbonyl)piperazin-1-yl)propoxy)prop-1-yn-1-yl)-2-(2,6-dioxopiperidin-3-yl)isoindoline-1,3-dione] | < 50 | C (“C” indicates maximum degradation < 50%)
Nc1nnc(-c2ccccc2O)cc1OCC12CC(C(=O)N3CCN(CC4CN(c5ccc6c(c5)C(=O)N(C5CCC(=O)NC5=O)C6=O)C4)CC3)(C1)C2 (centres unmarked) [Compound 102, 5-(3-((4-(3-(((3-amino-6-(2-hydroxyphenyl)pyridazin-4-yl)oxy)methyl)bicyclo[1.1.1]pentane-1-carbonyl)piperazin-1-yl)methyl)azetidin-1-yl)-2-(2,6-dioxopiperidin-3-yl)isoindoline-1,3-dione] | < 50 | B (“B” indicates maximum degradation ≥ 50%)
Cc1ncsc1-c1ccc(CNC(=O)[C@@H]2C[C@@H](O)CN2C(=O)[C@@H](NC(=O)CCCCCCCCCCC(=O)NCC23CC(COc4cc(-c5ccccc5O)nnc4N)(C2)C3)C(C)(C)C)cc1 [Compound 38, N1-((3-(((3-amino-6-(2-hydroxyphenyl)pyridazin-4-yl)oxy)methyl)bicyclo[1.1.1]pentan-1-yl)methyl)-N12-((S)-1-((2S,4R)-4-hydroxy-2-((4-(4-methylthiazol-5-yl)benzyl)carbamoyl)pyrrolidin-1-yl)-3,3-dimethyl-1-oxobutan-2-yl)dodecanediamide] | < 50 | B (“B” indicates maximum degradation ≥ 50%)

Further lines, with some results ahead:

Dmax [1] [%] | SMILES | BRM HiBit Degradation Maximum (%) (HiBit-BRM fusion protein)
< 50 | Nc1nnc(-c2ccccc2O)cc1OCC12CC(CNC(=O)CCN3CC4(C3)CN(c3ccc5c(c3)C(=O)N(C3CCC(=O)NC3=O)C5=O)C4)(C1)C2 (centres unmarked) [Compound 17, N-((3-(((3-amino-6-(2-hydroxyphenyl)pyridazin-4-yl)oxy)methyl)bicyclo[1.1.1]pentan-1-yl)methyl)-3-(6-(2-(2,6-dioxopiperidin-3-yl)-1,3-dioxoisoindolin-5-yl)-2,6-diazaspiro [3.3]heptan-2-yl)propanamide] | C (“C” indicates maximum degradation < 50%)
< 50 | Nc1nnc(-c2ccccc2O)cc1OCC12CC(C(=O)NCCS(=O)(=O)CCNc3cccc4c3C(=O)N(C3CCC(=O)NC3=O)C4=O)(C1)C2 (centres unmarked) [Compound 74, 3-(((3-amino-6-(2-hydroxyphenyl)pyridazin-4-yl)oxy)methyl)-N-(2-((2-((2-(2,6-dioxopiperidin-3-yl)-1,3-dioxoisoindolin-4-yl)amino)ethyl)sulfonyl)ethyl)bicyclo[1.1.1]pentane-1-carboxamide] | C (“C” indicates maximum degradation < 50%)
< 50 | CN(CCNC(=O)C12CC(COc3cc(-c4ccccc4O)nnc3N)(C1)C2)CCNc1cccc2c1C(=O)N(C1CCC(=O)NC1=O)C2=O (centres unmarked) [Compound 77, 3-(((3-amino-6-(2-hydroxyphenyl)pyridazin-4-yl)oxy)methyl)-N-(2-((2-((2-(2,6-dioxopiperidin-3-yl)-1,3-dioxoisoindolin-4-yl)amino)ethyl)(methyl)amino)ethyl)bicyclo[1.1.1]pentane-1-carboxamide] | C (“C” indicates maximum degradation < 50%)
> 50 | Cc1ncsc1-c1ccc(CNC(=O)[C@@H]2C[C@@H](O)CN2C(=O)[C@@H](NC(=O)CCCCCCCCCC(=O)NC23CC(CCOc4cc(-c5ccccc5O)nnc4N)(C2)C3)C(C)(C)C)cc1 [Compound 48, N1-(3-(2-((3-amino-6-(2-hydroxyphenyl)pyridazin-4-yl)oxy)ethyl)bicyclo[1.1.1]pentan-1-yl)-N11-((S)-1-((2S,4R)-4-hydroxy-2-((4-(4-methylthiazol-5-yl)benzyl)carbamoyl)pyrrolidin-1-yl)-3,3-dimethyl-1-oxobutan-2-yl)undecanediamide; formic acid] | B (“B” indicates maximum degradation ≥ 50%)
< 50 | Cc1ncsc1-c1ccc(CNC(=O)[C@@H]2C[C@@H](O)CN2C(=O)[C@@H](NC(=O)CCCCCCCCCCCCCCC(=O)NC23CC(CCOc4cc(-c5ccccc5O)nnc4N)(C2)C3)C(C)(C)C)cc1 [Compound 50, N1-(3-(2-((3-amino-6-(2-hydroxyphenyl)pyridazin-4-yl)oxy)ethyl)bicyclo[1.1.1]pentan-1-yl)-N16-((S)-1-((2S,4R)-4-hydroxy-2-((4-(4-methylthiazol-5-yl)benzyl)carbamoyl)pyrrolidin-1-yl)-3,3-dimethyl-1-oxobutan-2-yl)hexadecanediamide; formic acid] | B (“B” indicates maximum degradation ≥ 50%)
< 50 | Nc1nnc(-c2ccccc2O)cc1OCC12CC(C(=O)NCCOc3cccc(OCCNc4ccc5c(c4)C(=O)N(C4CCC(=O)NC4=O)C5=O)c3)(C1)C2 (centres unmarked) [Compound 82, 3-(((3-amino-6-(2-hydroxyphenyl)pyridazin-4-yl)oxy)methyl)-N-(2-(3-(2-((2-(2,6-dioxopiperidin-3-yl)-1,3-dioxoisoindolin-5-yl)amino)ethoxy)phenoxy)ethyl)bicyclo[1.1.1]pentane-1-carboxamide] | C (“C” indicates maximum degradation < 50%)
